pIC50: −log10 of the molar value.
Experiments:
[1] = biological target: T1, NAD-dependent protein deacetylase sirtuin-2 (Homo sapiens, UniProt Q8IXJ6); assay: Inhibition of recombinant SIRT2 (unknown origin) using FAM-labeled RHKK(Ac) LM peptide as substrate incubated for 60 mins by electrophoretic mobility shift assay
T1 sequence (Q8IXJ6 whole entry): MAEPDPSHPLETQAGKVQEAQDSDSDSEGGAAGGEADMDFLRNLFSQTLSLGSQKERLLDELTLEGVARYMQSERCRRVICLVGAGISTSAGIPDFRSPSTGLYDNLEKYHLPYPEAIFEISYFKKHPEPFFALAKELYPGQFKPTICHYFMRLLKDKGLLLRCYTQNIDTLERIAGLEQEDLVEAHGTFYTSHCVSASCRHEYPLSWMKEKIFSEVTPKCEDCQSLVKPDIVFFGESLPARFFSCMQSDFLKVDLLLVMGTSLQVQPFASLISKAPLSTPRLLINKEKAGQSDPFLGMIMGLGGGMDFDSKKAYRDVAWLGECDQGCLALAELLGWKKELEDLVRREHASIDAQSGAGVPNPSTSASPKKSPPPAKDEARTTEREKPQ

MT2 = assay: Cytotoxicity against human MT2 cells assessed as reduction in cell proliferation measured after 3 days by MTT assay; assay type: cell-based; conditions: MT2, 72 h
HeLa = assay: Antiproliferative activity against human HeLa cells assessed as reduction in cell proliferation measured after 3 days by MTT assay; assay type: functional, cell-based; conditions: 72 h
HL-60 = assay: Antiproliferative activity against human HL-60 cells assessed as reduction in cell proliferation measured after 3 days by MTT assay; assay type: functional, cell-based; conditions: HL-60, 72 h
MCF7 = assay: Antiproliferative activity against human MCF7 cells assessed as reduction in cell proliferation measured after 3 days by MTT assay; assay type: functional, cell-based; conditions: MCF7, 72 h
K562 = assay: Antiproliferative activity against human K562 cells assessed as reduction in cell proliferation measured after 3 days by MTT assay; assay type: functional, cell-based; conditions: K562, 72 h

`CN(C)c1ccnc(CNCCSC(C)(C)C)c1` was tested, and the pIC50 [1] was < 4.00.

In the case of `CN(C)c1ccnc(CNCCSC(c2ccccc2)(c2ccccc2)c2ccccc2)c1`, the pIC50 (MT2) was 5.50, the pIC50 (HeLa) was 5.65 and the pIC50 [1] was 5.12. The pIC50 (HL-60) was 5.73, the pIC50 (MCF7) was 5.29 and the pIC50 (K562) was 5.61.

With `CN(C)c1ccnc(CNCCS)c1` the pIC50 [1] was < 4.00.

For `CN(C)c1ccc(CNCCSC(c2ccccc2)(c2ccccc2)c2ccccc2)c(Cl)c1`, the pIC50 [1] was < 4.00.

`CCN(CC)c1ccnc(CNCCSC(c2ccccc2)(c2ccccc2)c2ccccc2)c1` gave a pIC50 (MT2) of 5.65, a pIC50 (HeLa) of 5.88 and a pIC50 [1] of 5.12. It also gave a pIC50 (HL-60) of 5.57, a pIC50 (MCF7) of 5.30 and a pIC50 (K562) of 5.95.

`COC(=O)[C@@H](CSC(c1ccccc1)(c1ccccc1)c1ccccc1)NCc1cc(N(C)C)ccn1` gave a pIC50 (MT2) of 5.50, a pIC50 (HeLa) of 5.81 and a pIC50 [1] of 4.97. The pIC50 (HL-60) was 6.35, the pIC50 (MCF7) was 5.50 and the pIC50 (K562) was 5.66.

`CN(C)c1ccnc(C(=O)NCCSC(c2ccccc2)(c2ccccc2)c2ccccc2)c1` was tested, and the pIC50 [1] was < 4.00.

With `COc1cc(N(C)C)ccc1CNCCSC(c1ccccc1)(c1ccccc1)c1ccccc1` the pIC50 [1] was < 4.00.

In the case of `CN(C)c1cccc(CNCCSC(c2ccccc2)(c2ccccc2)c2ccccc2)c1`, the pIC50 [1] was < 4.00.

`NCCSC(c1ccccc1)(c1ccccc1)c1ccccc1` was tested, and the pIC50 [1] was < 4.00.

Work on `c1ccc(C(SCCNCc2ccccn2)(c2ccccc2)c2ccccc2)cc1` yielded a pIC50 (MT2) of 5.45, a pIC50 (HeLa) of 5.38 and a pIC50 [1] of 4.41. For the same compound, the pIC50 (HL-60) was 5.24, the pIC50 (MCF7) was 5.13 and the pIC50 (K562) was 5.50.

Reference: ChEMBL document CHEMBL4699459, “Structure activity study of S-trityl-cysteamine dimethylaminopyridine derivatives as SIRT2 inhibitors: Improvement of SIRT2 binding and inhibition” (Bioorg Med Chem Lett, 2020)
